This series concerns MecA mRNA. In words: PNA FISH of MecA mRNA in permeabilized S. aureus (Examples 1-3). In kind it is cell-based.

Regarding “GCTATCGTGTCACAA (all peptide nucleic acid (PNA); fluorescein label, position not given here; listed as Staphylococcus aureus) [Probe 2, Flu-labeled PNA probe, methicillin-resistance]”, for the setting “MRSA 43300, oxacillin-induced, FIG. 1 Slides B-D, Probes 1-5 794 nM combined, Probe 2 750 nM, Probe 6 750 nM”, the “fluorescent staining of bacteria (FITC filter)” value is “Green fluorescent bacteria were observed”. Further, for the setting “MRSA 43300, Probe 2 300 nM in the presence of 16.6-fold excess (5000 nM) of biotin labeled Probe 7, FIG. 1 Slide E”, the “fluorescent staining of bacteria (FITC filter), competition control” value is given as “No signal was observed”.

For the origin of these results see US20160257997A1, “METHODS FOR WHOLE-CELL ANALYSIS OF GRAM-POSITIVE BACTERIA” (AdvanDx, Inc., priority 2009, published 2016).
